Key:
[1] = Stability of Fe-BBG against trans-chelation by endogenous chelators (UV-vis); format: physicochemical
Description: In other words, the ligand BBG binds to Fe^3+ with an estimated 230±40 times higher affinity than citrate.

holo-transferrin = holo-transferrin (Homo sapiens, UniProt P02787); assay: Fe removal from holo-transferrin by BBG ligand; format: biochemical; details: 24 h, pH 7.4, 37° C.
Method: Solutions of 20 μM holo-transferrin and BBG of concentration ranging between 0 and 100 μM (0-5 molar equivalents) were incubated for 24 h in pH 7.4 50 mM HEPES buffer supplemented with 25 mM carbonate at 37° C., and Fe removal from transferrin was monitored using fluorescence spectroscopy (excitation wavelength: 280 nm).
In another experiment, […] holo-transferrin and was incubated with 100 μM BBG (10 molar equivalents) for 24 h in pH 7.4 50 mM HEPES buffer supplemented with 25 mM carbonate at 37° C., and Fe removal monitored by urea gel electrophoresis assay, FIG. 11B.

[2] = pH-potentiometric titration, Cu2+ complex; format: physicochemical; details: pH 7.4
Method: (§1) The aqueous solutions thermodynamics of BBG and its corresponding complexes of Fe^3+, Cu^2+, and Zn^2+ were interrogated through pH-potentiometric titration of BBG (L) in the absence and presence of 1 molar equivalent of Fe^3+, Cu^2+, or Zn^2+, FIG. 13A.
(§2) pH-potentiometric measurements were performed using an Orion ROSS Ultra pH electrode and temperature-controlled reaction vessel held at 310 K. A standardized solution of 0.10 M NaOH was used as the titrant. The electrode was calibrated prior to each titration by titrating a standardized HCl(aq) solution at ionic strength 0.10 using NaCl as the inert electrolyte with the standardized NaOH titrant. A working slope and intercept were generated by plotting mV as a function of calculated pH, which enabled direct conversion of electrode readings to [H^+] during sample titrations. pH values recorded during the titrations refers to hydrogen ion concentration. All titration samples were prepared in solutions of 0.10 M NaCl in distilled, deionized water. Ligand solutions were prepared by dissolving a weighed quantity into water and concentration was determined from the effective weight of the ligand and confirmed by the quantity of NaOH required to consume 1 molar equivalent of ligand proton. […]

[3] = pH-potentiometric titration, Zn2+ complex; format: physicochemical; details: pH 7.4
Method: as §1, §2

[4] = Human blood plasma incubation, ultrafiltration and ICP-MS of metals; details: 0-5 mM BBG, 1 h, 37° C., 10 kDa cutoff
Method: The plasma concentrate and ultrafiltrate were assayed for concentrations of Cu and Zn, as well as Mn, Mg, and Ca by ICP-MS.
To illustrate this point, human blood plasma samples containing between 0-5 mM BBG were incubated for 1 h at 37° C. before separation of the low-molecular weight solution components by ultrafiltration through a 10 kDa molecular weight cutoff filter. The plasma concentrate and ultrafiltrate were assayed for concentrations of Cu and Zn, as well as Mn, Mg, and Ca by ICP-MS, FIG. 14.

[5] = cited from earlier work

holo-transferrin, sequence (P02787 20-698): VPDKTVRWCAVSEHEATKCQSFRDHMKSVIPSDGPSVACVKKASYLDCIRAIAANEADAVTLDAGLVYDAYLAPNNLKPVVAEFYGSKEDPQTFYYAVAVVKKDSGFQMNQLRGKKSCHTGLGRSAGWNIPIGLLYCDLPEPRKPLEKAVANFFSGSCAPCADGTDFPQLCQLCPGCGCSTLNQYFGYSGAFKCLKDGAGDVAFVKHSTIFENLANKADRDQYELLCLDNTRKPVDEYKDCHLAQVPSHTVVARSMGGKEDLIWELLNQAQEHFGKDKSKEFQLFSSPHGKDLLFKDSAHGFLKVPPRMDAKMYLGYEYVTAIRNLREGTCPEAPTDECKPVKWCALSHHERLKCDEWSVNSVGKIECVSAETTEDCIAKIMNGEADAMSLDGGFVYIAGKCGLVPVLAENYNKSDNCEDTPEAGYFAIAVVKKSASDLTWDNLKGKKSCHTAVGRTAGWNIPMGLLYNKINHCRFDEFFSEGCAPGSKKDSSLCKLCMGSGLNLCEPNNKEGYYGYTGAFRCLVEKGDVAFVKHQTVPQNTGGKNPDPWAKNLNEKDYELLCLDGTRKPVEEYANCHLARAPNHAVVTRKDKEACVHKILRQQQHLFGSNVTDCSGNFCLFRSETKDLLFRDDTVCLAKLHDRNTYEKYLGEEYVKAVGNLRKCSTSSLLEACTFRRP

Compound	Fe^3+ affinity relative to endogenous chelators [1]	Fe^3+ affinity relative to citrate ([1]; estimated from citrate challenge) [times]	Fe removal from transferrin (urea gel electrophoresis) (holo-transferrin; 10 μM holo-transferrin, 100 μM BBG (10 molar equivalents))	Fe removal from transferrin (fluorescence spectroscopy) (holo-transferrin; 20 μM holo-transferrin, 0-100 μM BBG)	greater stability of Fe^3+ binding than Cu^2+ [2]	greater stability of Fe^3+ binding than Zn^2+ [3]	metal ion content remaining in the plasma concentrate [4]	log Kcond at pH 7.4 for Fe^3+, first binding site [5]	log Kcond at pH 7.4 for Fe^3+, second binding site [5]
O=C(O)CC[C@@H](C(=O)O)N(Cc1ccccc1O)Cc1ccccc1O [BBG, N,N-bis(2-hydroxybenzyl)-L-glutamic acid]	substantially higher affinity	230±40	No evidence of Fe removal	No evidence of Fe removal	9 orders of magnitude	15 orders of magnitude	little effect		
transferrin: the iron carrier protein transferrin								about 20.7	~19.4
